Measured values published in article PMC3874184 (Nucleic Acids Research, 2013).
pKd: −log10 of the molar value.

Assays:
scTrm10_84 = target: T1, scTrm10_84 (Saccharomyces cerevisiae, UniProt Q12400); assay: X-ray crystal structure, […] Å; settings: SAM-binding pocket in C-terminal trefoil knot; 1:3 protein:SAH
T1 sequence (Q12400 84-276): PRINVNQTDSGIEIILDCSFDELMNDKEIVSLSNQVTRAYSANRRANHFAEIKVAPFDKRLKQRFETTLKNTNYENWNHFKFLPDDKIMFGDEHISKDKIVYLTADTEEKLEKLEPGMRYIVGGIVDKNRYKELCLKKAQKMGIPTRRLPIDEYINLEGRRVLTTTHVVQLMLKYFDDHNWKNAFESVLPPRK

spTrm10 (spTrm10_FL) [1] = target: T2, spTrm10 (spTrm10_FL) (Schizosaccharomyces pombe, UniProt O14214); assay: X-ray crystal structure, […] Å; settings: SAM-binding pocket in C-terminal trefoil knot; 1:3 protein:SAH
T2 sequence (O14214 1-304): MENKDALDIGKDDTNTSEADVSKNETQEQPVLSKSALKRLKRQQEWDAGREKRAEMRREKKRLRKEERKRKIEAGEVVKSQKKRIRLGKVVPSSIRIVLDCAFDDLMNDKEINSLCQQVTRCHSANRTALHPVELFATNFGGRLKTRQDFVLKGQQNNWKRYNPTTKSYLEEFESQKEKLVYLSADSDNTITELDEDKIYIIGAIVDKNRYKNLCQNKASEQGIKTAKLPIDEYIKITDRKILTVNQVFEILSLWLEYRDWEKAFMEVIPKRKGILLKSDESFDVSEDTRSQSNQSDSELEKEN

spTrm10 (spTrm10_FL) [2] = target: spTrm10 (spTrm10_FL) (Schizosaccharomyces pombe, UniProt O14214, N209A); assay: biochemical
spTrm10 (spTrm10_FL) (Schizosaccharomyces pombe, UniProt O14214, N209A), sequence (O14214 whole entry N209A): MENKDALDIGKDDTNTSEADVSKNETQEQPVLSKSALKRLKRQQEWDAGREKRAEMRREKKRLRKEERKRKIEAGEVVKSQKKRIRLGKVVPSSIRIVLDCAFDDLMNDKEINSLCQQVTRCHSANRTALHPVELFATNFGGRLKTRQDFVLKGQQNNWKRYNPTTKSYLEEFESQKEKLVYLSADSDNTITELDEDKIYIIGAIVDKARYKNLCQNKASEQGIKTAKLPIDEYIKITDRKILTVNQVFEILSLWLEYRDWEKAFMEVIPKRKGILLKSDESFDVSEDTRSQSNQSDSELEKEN

spTrm10 (spTrm10_FL) [3] = target: T2, spTrm10 (spTrm10_FL); assay: biochemical

Nc1ncnc2c1ncn2[C@@H]1O[C@H](CSCC[C@H](N)C(=O)O)[C@@H](O)[C@H]1O [SAH]
X-ray crystal structure, 1.76 Å (scTrm10_84): 4JWJ for scTrm10_84-SAH
X-ray crystal structure, 2.04 Å (spTrm10 (spTrm10_FL) [1]): 4JWH for spTrm10-FL-SAH

C[S+](CC[C@H](N)C(=O)O)C[C@H]1O[C@@H](n2cnc3c(N)ncnc32)[C@H](O)[C@@H]1O (stereo partly shown) [SAM]
pKd (spTrm10 (spTrm10_FL) [2]): 4.08
pKd (spTrm10 (spTrm10_FL) [3]): 5.35
